Results reported in patent US20090286713A9, “Collagen Receptor I-Domain Binding Modulators” (Biotie Therapies Corporation, priority 2005, published 2009).

Experiments:
[1] = biological target: T1, α10 I-domain (Homo sapiens, UniProt O75578); assay: Solid-phase binding assay, α10 I-domain binding to type I collagen; conditions: at 0.05 mM concentration; FIG. 9
T1 construct: corresponding to amino acids 141-337 of the whole α10 integrin; made in house; host or cells: E. coli BL21 (pGEX-2T)
T1 sequence (O75578 163-359): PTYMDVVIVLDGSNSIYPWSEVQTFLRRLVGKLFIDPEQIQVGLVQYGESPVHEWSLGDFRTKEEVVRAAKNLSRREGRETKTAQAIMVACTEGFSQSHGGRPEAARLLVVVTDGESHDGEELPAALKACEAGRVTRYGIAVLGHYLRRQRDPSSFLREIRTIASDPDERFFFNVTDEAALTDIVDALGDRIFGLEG
Procedure: (§1) Solid-phase binding assay for α1-domains—The coating of a 96-well high binding microtiter plate (Nune) was done by exposure to 0.1 ml of PBS containing 5 μg/cm2 (15 μg/ml) collagens or 20 μg/ml triple-helical peptides overnight at +4° C. Blank wells were coated with 1:1 solution of 0.1 ml Delfia® Diluent II (Wallac) and PBS. Residual protein absorption sites on all wells were blocked with 1:1 solution of 0.1 ml Delfia® Diluent II (Wallac) and PBS. Recombinant proteins (αI-GST) were added to the coated wells at a desired concentration in Delfia® Assay Buffer and incubated for 1 h at room temperature. Europium-labelled anti-GST antibody (Wallac) was then added (typically 1:1000), and the mixture was incubated for 1 h at room temperature. All incubations mentioned above were done in the presence of 2 mM MgCl2. Delfia® enhancement solution (Wallac) was added to each well and the Europium signal was measured by time-resolved fluorometry (Victor2 multilabel counter, Wallac). At least three parallel wells were analyzed. In some cases some what modified solid-phase assay was used and it was performed according Tulla et al, 2001. It uses anti-GST and Europium-labelled protein G instead of Europium-labelled anti-GST antibody.
The inhibitory effect of L3009 was tested with all collagen binding integrin α I-domains, α1I, α2I, α10I and α11I as described in Example 4. […]

[2] = biological target: T2, α1 I-domain (Homo sapiens, UniProt P56199); assay: Solid-phase binding assay, α1 I-domain binding to type I collagen; conditions: at 0.05 mM concentration; FIG. 9
T2 construct: corresponding to amino acids 123-338 of the whole α1 integrin; made in house; host or cells: E. coli BL21 (pGEX-4T-3)
T2 sequence (P56199 151-366): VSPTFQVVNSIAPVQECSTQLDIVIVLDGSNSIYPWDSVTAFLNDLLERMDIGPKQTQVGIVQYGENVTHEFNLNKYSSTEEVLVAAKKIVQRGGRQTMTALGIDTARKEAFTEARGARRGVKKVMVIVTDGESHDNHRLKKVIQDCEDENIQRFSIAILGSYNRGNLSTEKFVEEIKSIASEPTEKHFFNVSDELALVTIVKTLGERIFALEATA
Procedure: as §1
The tetracyclic Streptomyces compounds synthesised in Example 1, where screened for inhibition of collagen binding to α1 and α2 I-domains, using the α I-domain assay described in Example 4. […] L3015 could inhibit the binding of both α1I and α2 I-domains to type I and type IV collagen (FIG. 6B).
Furthermore α1I and α2 I-domain binding to collagen I in the presence of lovastatin was tested in the europium-labelled anti-GST assay described in Example 4. Lovastatin is an allosteric inhibitor of leukocyte integrin α I-domains (e.g. αL I-domain), and the binding site of lovastatin represents an optional binding site for possible modulators. […] These biological tests gave further evidence that collagen receptor α I-domains are inhibited by direct blocking of the MIDAS surface by tetracyclic polyketide.

Structure (SMILES): COC(=O)c1c(C(C)C)cc(O)c2c(O)c3c(c(O)c12)C(=O)c1cccc(O)c1C3=O [Compound L3009, methyl 4,5,7,12-tetrahydroxy-2-methylethyl)-6,11-dioxonaphthacenecarboxylate]
- inhibition of collagen I binding of α10I [1]: could inhibit
- inhibition of collagen I binding of α1I [2]: could inhibit
